Columns and labels:
JNK1 [1] = biological target: T1, JNK1 (Homo sapiens, UniProt P45983); test: 33PanQinase enzyme assay, JNK1; format: biochemical; set-up: purchased ProQinase GmbH, Freiburg, Germany (33PanQinase Assay Service); settings: ratio IC50(JNK1)/IC50(MKK4)
How it was run: (§1)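 Radiometric 33PanQinase format: kinase with substrate, ATP and compound (added in 10% DMSO stock) incubated 60 min at 30° C, stopped with 2% H3PO4, ^33Pi incorporation counted by scintillation. Single-concentration data given as % residual activity; IC50 by least-squares fit, with selectivity as IC50(off-target)/IC50(MKK4).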
Target sequence in this assay (P45983 whole entry): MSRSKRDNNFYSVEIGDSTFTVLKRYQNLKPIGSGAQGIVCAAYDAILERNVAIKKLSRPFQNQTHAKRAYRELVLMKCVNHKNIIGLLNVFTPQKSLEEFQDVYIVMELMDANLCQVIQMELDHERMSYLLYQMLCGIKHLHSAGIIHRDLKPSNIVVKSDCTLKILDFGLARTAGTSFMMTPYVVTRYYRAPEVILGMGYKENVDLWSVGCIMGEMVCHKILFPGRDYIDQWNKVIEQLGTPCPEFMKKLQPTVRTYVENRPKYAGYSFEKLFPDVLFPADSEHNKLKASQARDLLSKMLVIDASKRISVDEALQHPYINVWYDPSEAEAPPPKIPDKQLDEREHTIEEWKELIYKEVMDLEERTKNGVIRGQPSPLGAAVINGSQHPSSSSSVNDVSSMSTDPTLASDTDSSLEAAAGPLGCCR

BRaf [2] = biological target: T2, BRaf (Homo sapiens, UniProt P15056); test: 33PanQinase enzyme assay, BRaf; format: biochemical; settings: ratio IC50(BRaf)/IC50(MKK4)
T2 construct: purchased ProQinase GmbH, Freiburg, Germany (33PanQinase Assay Service)
T2 sequence (P15056 whole entry, species assumed): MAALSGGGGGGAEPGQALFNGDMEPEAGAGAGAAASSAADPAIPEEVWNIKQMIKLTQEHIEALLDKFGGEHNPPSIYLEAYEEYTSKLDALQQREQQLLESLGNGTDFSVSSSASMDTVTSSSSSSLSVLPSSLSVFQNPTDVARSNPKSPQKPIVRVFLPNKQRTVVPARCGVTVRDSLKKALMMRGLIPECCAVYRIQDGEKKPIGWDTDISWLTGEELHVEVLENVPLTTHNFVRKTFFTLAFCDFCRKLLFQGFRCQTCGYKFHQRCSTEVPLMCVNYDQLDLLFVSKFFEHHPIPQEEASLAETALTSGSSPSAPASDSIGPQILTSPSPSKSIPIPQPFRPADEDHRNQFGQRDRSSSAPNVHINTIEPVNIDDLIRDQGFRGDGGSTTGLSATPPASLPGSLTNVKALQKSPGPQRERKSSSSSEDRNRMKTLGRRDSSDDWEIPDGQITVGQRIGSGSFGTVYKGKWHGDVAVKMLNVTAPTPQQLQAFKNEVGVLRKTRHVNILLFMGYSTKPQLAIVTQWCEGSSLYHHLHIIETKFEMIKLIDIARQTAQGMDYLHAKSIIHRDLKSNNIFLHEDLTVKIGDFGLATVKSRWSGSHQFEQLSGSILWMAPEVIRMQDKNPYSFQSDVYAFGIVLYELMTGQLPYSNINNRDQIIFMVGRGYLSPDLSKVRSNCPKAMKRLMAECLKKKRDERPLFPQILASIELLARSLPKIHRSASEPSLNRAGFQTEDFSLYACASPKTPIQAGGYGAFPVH
How it was run: as §1

MKK4 [3] = biological target: T3, MKK4 (Homo sapiens, UniProt P45985); test: KINOMEscan competition binding assay, MKK4; settings: residual percent of control binding (PoC) at 100 nM
T3 construct: S84/D399; host or cells: HEK-293
T3 sequence (P45985 84-399): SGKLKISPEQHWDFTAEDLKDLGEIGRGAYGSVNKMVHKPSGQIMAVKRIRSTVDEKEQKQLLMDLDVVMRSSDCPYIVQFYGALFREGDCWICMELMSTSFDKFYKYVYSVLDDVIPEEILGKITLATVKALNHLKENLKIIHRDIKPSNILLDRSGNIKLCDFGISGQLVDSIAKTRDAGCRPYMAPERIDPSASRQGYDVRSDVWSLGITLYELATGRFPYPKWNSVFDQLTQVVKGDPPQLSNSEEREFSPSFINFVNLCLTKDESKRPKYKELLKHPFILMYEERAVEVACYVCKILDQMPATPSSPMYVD
How it was run: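 KINOMEscan competition of compound versus immobilized ligand for DNA-tagged MKK4 expressed in HEK-293 cells. Bound kinase was quantified by qPCR after elution.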

BRaf [4] = biological target: T2, BRaf; test: KINOMEscan competition binding assay, BRaf; settings: ratio PoC (off-target)/PoC (MKK4)
How it was run: (§2)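 DNA-tagged kinases expressed in HEK-293 cells compete between immobilized ligand on blocked beads and test compound at 100 nM; kinase retained on beads quantified by qPCR of the tag.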

JNK1 [5] = biological target: T1, JNK1; test: KINOMEscan competition binding assay, JNK1; set-up: M1/Q384; host or cells: HEK-293; settings: ratio PoC (off-target)/PoC (MKK4)
How it was run: as §2
Target sequence in this assay (P45983 1-384 isoform P45983-2): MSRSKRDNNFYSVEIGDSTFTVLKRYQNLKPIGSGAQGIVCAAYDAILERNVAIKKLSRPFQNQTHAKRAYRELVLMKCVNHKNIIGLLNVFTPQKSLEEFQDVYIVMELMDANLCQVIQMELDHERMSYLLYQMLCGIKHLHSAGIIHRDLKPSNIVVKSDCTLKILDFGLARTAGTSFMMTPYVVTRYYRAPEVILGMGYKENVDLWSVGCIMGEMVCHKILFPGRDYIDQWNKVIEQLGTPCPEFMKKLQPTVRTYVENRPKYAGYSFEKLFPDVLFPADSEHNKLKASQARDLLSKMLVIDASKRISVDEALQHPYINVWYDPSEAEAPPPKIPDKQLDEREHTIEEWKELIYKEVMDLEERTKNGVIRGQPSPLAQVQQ

MKK4 [6] = biological target: T4, MKK4 (Homo sapiens, UniProt P45985); test: 33PanQinase enzyme assay, MKK4; format: biochemical; settings: assay 'IC50'; read-out: Potency MKK4 (IC50)
T4 construct: purchased ProQinase GmbH, Freiburg, Germany (33PanQinase Assay Service)
T4 sequence (P45985 1-399): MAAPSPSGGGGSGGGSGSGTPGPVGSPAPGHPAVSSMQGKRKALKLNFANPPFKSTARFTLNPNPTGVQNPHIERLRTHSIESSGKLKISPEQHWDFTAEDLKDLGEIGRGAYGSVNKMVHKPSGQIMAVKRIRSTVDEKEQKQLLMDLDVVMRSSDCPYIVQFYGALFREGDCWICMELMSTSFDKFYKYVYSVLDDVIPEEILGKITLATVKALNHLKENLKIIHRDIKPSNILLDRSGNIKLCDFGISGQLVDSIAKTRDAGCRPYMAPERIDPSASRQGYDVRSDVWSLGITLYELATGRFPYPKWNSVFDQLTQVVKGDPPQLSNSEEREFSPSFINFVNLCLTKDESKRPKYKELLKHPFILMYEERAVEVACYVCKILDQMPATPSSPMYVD
How it was run: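 Radiometric 33PanQinase assay: kinase, substrate, ATP and compound in standard buffer, 60 min at 30 °C; 33Pi incorporation read by scintillation counting.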

MKK7 [7] = biological target: T5, MKK7 (Homo sapiens, UniProt O14733); test: KINOMEscan competition binding assay, MKK7; set-up: M1/R419; host or cells: HEK-293; settings: ratio PoC (off-target)/PoC (MKK4)
T5 sequence (O14733 1-419): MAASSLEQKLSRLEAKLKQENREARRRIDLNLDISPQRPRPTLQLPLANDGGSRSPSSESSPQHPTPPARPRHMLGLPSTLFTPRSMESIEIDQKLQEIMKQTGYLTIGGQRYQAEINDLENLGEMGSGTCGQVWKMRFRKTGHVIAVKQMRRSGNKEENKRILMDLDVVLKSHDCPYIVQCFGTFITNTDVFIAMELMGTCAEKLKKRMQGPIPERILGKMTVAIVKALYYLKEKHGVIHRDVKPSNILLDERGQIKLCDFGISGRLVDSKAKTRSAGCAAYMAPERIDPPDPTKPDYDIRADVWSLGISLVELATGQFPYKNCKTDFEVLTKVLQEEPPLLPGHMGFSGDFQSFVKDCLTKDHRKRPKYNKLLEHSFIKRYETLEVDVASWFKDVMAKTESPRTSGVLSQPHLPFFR
How it was run: as §2

MKK7 [8] = biological target: T5, MKK7; test: 33PanQinase enzyme assay, MKK7; format: biochemical; set-up: purchased ProQinase GmbH, Freiburg, Germany (33PanQinase Assay Service); settings: ratio IC50(MKK7)/IC50(MKK4)
How it was run: as §1

Structure (SMILES) | Selectivity JNK1, IC50(off-target)/IC50(MKK4) (JNK1 [1]) | Selectivity Braf, IC50(off-target)/IC50(MKK4) (BRaf [2]) | MKK4 [% Ctrl @ 100 nM (MKK4 [3]) | selectivity based on % Ctrl @100 nM vs. Braf (BRaf [4]) | selectivity based on % Ctrl @100 nM vs. JNK1 (JNK1 [5]) | IC50 (MKK4 [6]) [nM] | selectivity based on % Ctrl @100 nM vs. MKK7 (MKK7 [7]) | Selectivity IVIKK7, IC50(off-target)/IC50(MKK4) (MKK7 [8])
Cc1cc(F)ccc1-c1cnc2[nH]cc(C(=O)c3cccc(NS(=O)(=O)Cc4ccccc4)c3F)c2c1 [Example 126, N-(2-fluoro-3-(5-(4-fluoro-2-methylphenyl)-1H-pyrrolo[2,3-b]pyridine-3-carbonyl)phenyl)-1-phenylmethanesulfonamide] | + (10 ≥ IC50(off-target)/IC50(MKK4) > 3) | +++ (IC50(off-target)/IC50(MKK4) > 100) | + (3 ≤ PoC < 30) | ++ (100 ≥ ratio > 10) | ++ (100 ≥ ratio > 10) | 100 to 1000 | ++ (100 ≥ ratio > 10) | +++ (IC50(off-target)/IC50(MKK4) > 100)
O=C(c1c(F)ccc(NS(=O)(=O)CCC(F)(F)F)c1F)c1c[nH]c2ncc(-c3ccc(N4CCS(=O)(=O)CC4)nc3)cc12 [Example 81, N-(3-(5-(6-(1,1-dioxidothiomorpholino)pyridin-3-yl)-1H-pyrrolo[2,3-b]pyridine-3-carbonyl)-2,4-difluorophenyl)-3,3,3-trifluoropropane-1-sulfonamide] | ++ (100 ≥ IC50(off-target)/IC50(MKK4) > 10) | + (10 ≥ IC50(off-target)/IC50(MKK4) > 3) | +++ (PoC < 1) | +++ (Ratio > 100) | +++ (Ratio > 100) | < 100 | +++ (Ratio > 100) | +++ (IC50(off-target)/IC50(MKK4) > 100)
CCCS(=O)(=O)Nc1ccc(F)c(C(=O)c2c[nH]c3ncc(-c4cccc(O)c4)cc23)c1F [Example 101, N-(2,4-difluoro-3-(5-(3-hydroxyphenyl)-1H-pyrrolo[2,3-b]pyridine-3-carbonyl)phenyl)propane-1-sulfonamide] | ◯ (3 ≥ IC50(off-target)/IC50(MKK4)) | ◯ (3 ≥ IC50(off-target)/IC50(MKK4)) | ++ (1 ≤ PoC < 3) | ◯ (3 ≥ Ratio) | ++ (100 ≥ ratio > 10) | 100 to 1000 | ++ (100 ≥ ratio > 10) | +++ (IC50(off-target)/IC50(MKK4) > 100)
CCCS(=O)(=O)Nc1ccc(F)c(C(=O)c2c[nH]c3ncc(-c4ccc(C(F)(F)F)cc4)cc23)c1F [Example 106, N-(2,4-difluoro-3-(5-(4-(trifluoromethyl)phenyl)-1H-pyrrolo[2,3-b]pyridine-3-carbonyl)phenyl)propane-1-sulfonamide] | + (10 ≥ IC50(off-target)/IC50(MKK4) > 3) | ◯ (3 ≥ IC50(off-target)/IC50(MKK4)) | + (3 ≤ PoC < 30) | ◯ (3 ≥ Ratio) | + (10 ≥ ratio > 3) | 100 to 1000 | + (10 ≥ ratio > 3) | +++ (IC50(off-target)/IC50(MKK4) > 100)
CCCS(=O)(=O)Nc1c(F)ccc(C(=O)c2c[nH]c3ncc(-c4cnc(Cl)cn4)cc23)c1F [Example 211, N-(3-(5-(5-chloropyrazin-2-yl)-1H-pyrrolo[2,3-b]pyridine-3-carbonyl)-2,6-difluorophenyl)propane-1-sulfonamide] | ++ (100 ≥ IC50(off-target)/IC50(MKK4) > 10) | +++ (IC50(off-target)/IC50(MKK4) > 100) | +++ (PoC < 1) | +++ (Ratio > 100) | +++ (Ratio > 100) | 100 to 1000 | +++ (Ratio > 100) | +++ (IC50(off-target)/IC50(MKK4) > 100)
CN(C)c1ncc(-c2cnc3[nH]cc(C(=O)c4ccc(F)c(NS(=O)(=O)CCC(F)(F)F)c4F)c3c2)cn1 [Example 178, N-(3-(5-(2-(dimethylamino)pyrimidin-5-yl)-1H-pyrrolo[2,3-b]pyridine-3-carbonyl)-2,6-difluorophenyl)-3,3,3-trifluoropropane-1-sulfonamide] | +++ (IC50(off-target)/IC50(MKK4) > 100) | – | +++ (PoC < 1) | +++ (Ratio > 100) | +++ (Ratio > 100) | < 100 | +++ (Ratio > 100) | +++ (IC50(off-target)/IC50(MKK4) > 100)
CCCS(=O)(=O)Nc1ccc(F)c(C(=O)c2c[nH]c3ncc(-c4csc(SC)n4)cc23)c1F [Example 87, N-(2,4-difluoro-3-(5-(2-(methylthio)thiazol-4-yl)-1H-pyrrolo[2,3-b]pyridine-3-carbonyl)phenyl)propane-1-sulfonamide] | ◯ (3 ≥ IC50(off-target)/IC50(MKK4)) | – | ◯ (30 ≤ PoC) | ◯ (3 ≥ Ratio) | ◯ (3 ≥ Ratio) | > 10000 | ◯ (3 ≥ Ratio) | ◯ (3 ≥ IC50(off-target)/IC50(MKK4))
CCCS(=O)(=O)Nc1ccc(F)c(C(=O)c2c[nH]c3ncc(-c4nncs4)cc23)c1F [Example 86, N-(3-(5-(1,3,4-thiadiazol-2-yl)-1H-pyrrolo[2,3-b]pyridine-3-carbonyl)-2,4-difluorophenyl)propane-1-sulfonamide] | ◯ (3 ≥ IC50(off-target)/IC50(MKK4)) | – | + (3 ≤ PoC < 30) | ◯ (3 ≥ Ratio) | ++ (100 ≥ ratio > 10) | 1000 to 10000 | ++ (100 ≥ ratio > 10) | ++ (100 ≥ IC50(off-target)/IC50(MKK4) > 10)
